Key:
[1] = molecular target: T1, CYP 2B6 (Homo sapiens, UniProt P20813); test: CYP inhibition test, human liver microsomes, CYP2B6
T1 sequence (P20813 1-491): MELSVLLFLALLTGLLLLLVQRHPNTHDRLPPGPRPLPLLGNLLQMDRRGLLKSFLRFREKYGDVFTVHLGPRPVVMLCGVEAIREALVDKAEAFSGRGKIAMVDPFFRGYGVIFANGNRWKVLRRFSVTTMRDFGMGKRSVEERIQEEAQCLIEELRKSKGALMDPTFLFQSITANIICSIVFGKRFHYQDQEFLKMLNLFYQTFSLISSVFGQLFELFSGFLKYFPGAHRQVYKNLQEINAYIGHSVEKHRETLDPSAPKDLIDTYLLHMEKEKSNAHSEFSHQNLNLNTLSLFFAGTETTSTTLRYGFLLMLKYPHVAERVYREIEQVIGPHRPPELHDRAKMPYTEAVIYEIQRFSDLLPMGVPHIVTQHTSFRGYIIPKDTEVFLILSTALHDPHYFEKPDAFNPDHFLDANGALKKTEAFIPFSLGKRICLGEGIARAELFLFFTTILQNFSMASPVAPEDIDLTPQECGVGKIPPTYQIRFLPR
Protocol: (§1) • 1. Test purpose: to evaluate the inhibitory ability of some of the example compounds of the present invention against CYP1A2, 2B6, 2C8, 2C9, 2C19, 2D6 and 3A4 via human liver microsomes. • 2. […] Test method:
• 1. K/Mg buffer: the components were 0.1 mol/L potassium phosphate and 5 mmol/L magnesium chloride with pH 7.4±0.1, preheated. • 2. Solution of the test compound: the test compound was dissolved in dimethyl sulfoxide to prepare a stock solution of 10 mmol/L. 8 μL of 10 mmol/L stock solution was transferred to a 96-well plate containing 12 μL of acetonitrile as the highest concentration point, at 3-fold dilution, for 8 concentrations. • 3. […] Human liver microsomal stock solution: human liver microsomes were dissolved in 0.1 mol/L K/Mg buffer to obtain 20 mg/mL stock solution. • 5. Human liver microsomal working solution: 10 μL of 20 mg/mL human liver microsomal stock solution was taken and added into 990 μL of 0.1 mol/L K/Mg buffer to prepare 0.2 mg/mL human liver microsomal solution. • 6.
600 μL of 0.2 mg/mL human liver microsomal solution and 3 μL of stepwise diluted test compound solution were added to the 96-well plate. 30 μL of the above solution was added on the 96-well plate followed by the addition of 15 μL of the corresponding substrate solution. […]

[2] = molecular target: T2, CYP 2C8 (Homo sapiens, UniProt P10632); test: CYP inhibition test, human liver microsomes, CYP2C8
T2 sequence (P10632 1-490): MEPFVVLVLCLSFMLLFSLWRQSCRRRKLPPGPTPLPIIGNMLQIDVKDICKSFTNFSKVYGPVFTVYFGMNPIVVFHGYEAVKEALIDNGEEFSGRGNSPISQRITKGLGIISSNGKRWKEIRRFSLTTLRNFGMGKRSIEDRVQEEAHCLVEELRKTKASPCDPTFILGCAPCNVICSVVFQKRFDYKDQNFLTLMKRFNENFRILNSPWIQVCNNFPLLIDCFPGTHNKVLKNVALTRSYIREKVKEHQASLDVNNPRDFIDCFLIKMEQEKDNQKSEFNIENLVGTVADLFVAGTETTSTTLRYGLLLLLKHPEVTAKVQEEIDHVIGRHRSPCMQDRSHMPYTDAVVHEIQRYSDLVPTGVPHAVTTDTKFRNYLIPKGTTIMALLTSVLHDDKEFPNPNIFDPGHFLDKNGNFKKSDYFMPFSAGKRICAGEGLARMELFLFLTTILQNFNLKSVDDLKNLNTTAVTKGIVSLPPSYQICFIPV
Protocol: as §1
• 1. K/Mg buffer: the components were 0.1 mol/L potassium phosphate and 5 mmol/L magnesium chloride with pH 7.4±0.1, preheated. • 2. Solution of the test compound: the test compound was dissolved in dimethyl sulfoxide to prepare a stock solution of 10 mmol/L. 8 μL of 10 mmol/L stock solution was transferred to a 96-well plate containing 12 μL of acetonitrile as the highest concentration point, at 3-fold dilution, for 8 concentrations. • 3. NADPH solution: 66.7 mg of NADPH was dissolved in 10 mL of 0.1 mol/L K/Mg buffer to obtain 8 mmol/L NADPH solution with pH 7.4. • 4. Human liver microsomal stock solution: human liver microsomes were dissolved in 0.1 mol/L K/Mg buffer to obtain 20 mg/mL stock solution. • 5. Human liver microsomal working solution: 10 μL of 20 mg/mL human liver microsomal stock solution was taken and added into 990 μL of 0.1 mol/L K/Mg buffer to prepare 0.2 mg/mL human liver microsomal solution. • 6. […]

Compound	IC50 [1]	IC50 [2]
C=CC(=O)N1CCN(c2nc(=O)n(-c3c(C)ccnc3C(C)C)c3nc(-c4c(O)cccc4F)c(F)cc23)[C@@H](C)C1 [AMG510]	> 10 µM	> 10 µM
C=C(F)C(=O)N1CCN(c2nc(OC[C@@H]3CCCN3C)nc3c2CCN(c2cccc4cccc(Cl)c24)C3)C[C@@H]1CC#N [MRTX849]	3.93 µM	> 10 µM

Reference: patent publication US20250034161A1, “SPIROCYCLIC COMPOUND AS KRAS-G12C INHIBITOR” (Shanghai Euregen Biopharma Co., Ltd., priority 2020, published 2025)
